The source of these data is ChEMBL document CHEMBL1149979, “1,3-Dithian-2-ylidene and thiazolidin-2-ylidene derivatives as a novel class of antimycotic agents” (1997).

One experiment concerns Candida albicans. Nature of the experiment: In vitro minimum inhibitory concentration for antifungal activity against human pathogenic fungi Candida albicans. Format: functional.
Another experiment deals with Sporothrix schenckii. The experiment is described as follows: In vitro minimum inhibitory concentration for antifungal activity against human pathogenic fungi Sporothrix schenck ii. The class given is functional.
For the next experiment, the system named is Cryptococcus neoformans. The experiment is described as follows: In vitro minimum inhibitory concentration for antifungal activity against human pathogenic fungi Cryptococcus neoformans. Format: functional.
The test system of a further experiment is Aspergillus fumigatus. The experiment is described as follows: In vitro minimum inhibitory concentration for antifungal activity against human pathogenic fungi Aspergillus fumigatus. The class given is functional.
A further experiment concerns Trichophyton benhamiae. Nature of the experiment: In vitro minimum inhibitory concentration for antifungal activity against human pathogenic fungi Trichophyton mentagrophytes. The class given is functional, Arthroderma benhamiae.

SMILES strings stand for the structures. Converted amounts (≈) assume the structure as drawn.

On to `CC1CCS/C(=C(/C#N)n2ccnc2)S1` (stereo not given), for which the MIC (commonly the lowest concentration that inhibits growth of the organism) in the experiment with Candida albicans was 50 µg/mL (≈ 211 µM); against Sporothrix schenckii, greater than 100 µg/mL; with Cryptococcus neoformans, greater than 100 µg/mL; in the experiment with Aspergillus fumigatus, 0.19 µg/mL (≈ 0.8 µM); in the experiment on Trichophyton benhamiae, 3.12 µg/mL (≈ 13.1 µM).
`CCOC(=O)/C(=C1/SCCC(C)S1)n1ccnc1` (stereo not given): the MIC with Candida albicans is greater than 100 µg/mL; against Sporothrix schenckii it was greater than 100 µg/mL; with Cryptococcus neoformans, greater than 100 µg/mL; in the experiment on Aspergillus fumigatus, 50 µg/mL (≈ 176 µM); against Trichophyton benhamiae it was 25 µg/mL (≈ 87.9 µM).
For `CCOC(=O)C(=C1SCCCS1)n1ccnc1`, the MIC in the experiment on Candida albicans, in the experiment on Sporothrix schenckii, against Cryptococcus neoformans, in the experiment on Aspergillus fumigatus and with Trichophyton benhamiae was greater than 100 µg/mL throughout.
For the molecule `CC1=CS/C(=C(/C#N)n2ccnc2)S1`, the MIC in the experiment with Candida albicans was greater than 100 µg/mL; in the experiment with Sporothrix schenckii, greater than 100 µg/mL; with Cryptococcus neoformans, greater than 100 µg/mL; against Aspergillus fumigatus, 12.5 µg/mL (≈ 56.5 µM); in the experiment on Trichophyton benhamiae, 12.5 µg/mL (≈ 56.5 µM).
Regarding `CCN1/C(=C(\C#N)n2ccnc2)SCC1C` (stereo not given), the MIC with Candida albicans was greater than 100 µg/mL; in the experiment with Sporothrix schenckii, greater than 100 µg/mL; in the experiment with Cryptococcus neoformans, greater than 100 µg/mL; in the experiment on Aspergillus fumigatus, 25 µg/mL (≈ 107 µM); in the experiment with Trichophyton benhamiae, 50 µg/mL (≈ 213 µM).
For `O=C(C(=C1SCCCS1)n1ccnc1)c1ccc(Cl)cc1`, the MIC in the experiment on Candida albicans was greater than 100 µg/mL; in the experiment with Sporothrix schenckii, greater than 100 µg/mL; with Cryptococcus neoformans, greater than 100 µg/mL; against Aspergillus fumigatus it was 12.5 µg/mL (≈ 37.1 µM); in the experiment on Trichophyton benhamiae, 12.5 µg/mL (≈ 37.1 µM).
On to `O=C(/C(=C1/SCCN1c1ccccc1)n1ccnc1)c1ccc(Cl)cc1`, for which the MIC against Candida albicans, against Sporothrix schenckii, against Cryptococcus neoformans, against Aspergillus fumigatus and in the experiment on Trichophyton benhamiae was greater than 100 µg/mL throughout.
Regarding `CCN1CCS/C1=C(/C#N)n1ccnc1`, the MIC with Candida albicans was greater than 100 µg/mL; with Sporothrix schenckii, greater than 100 µg/mL; with Cryptococcus neoformans it was greater than 100 µg/mL; with Aspergillus fumigatus, 25 µg/mL (≈ 113 µM); against Trichophyton benhamiae, 25 µg/mL (≈ 113 µM).
In the case of `CC(=O)N1CCN(c2ccc(OC[C@H]3CO[C@](Cn4ccnc4)(c4ccc(Cl)cc4Cl)O3)cc2)CC1` [KETOCONAZOLE], the MIC amounted to 0.1 µg/mL (≈ 0.188 µM) with Candida albicans; 0.1 µg/mL (≈ 0.188 µM) against Sporothrix schenckii; 0.3 µg/mL (≈ 0.565 µM) in the experiment with Cryptococcus neoformans; 0.7 µg/mL (≈ 1.32 µM) with Aspergillus fumigatus; 25 µg/mL (≈ 47 µM) against Trichophyton benhamiae.
Regarding `N#CC(=C1SCCCS1)n1ccnc1`, the MIC in the experiment on Candida albicans is 100 µg/mL (≈ 448 µM); in the experiment on Sporothrix schenckii, greater than 100 µg/mL; against Cryptococcus neoformans, greater than 100 µg/mL; in the experiment on Aspergillus fumigatus, 3.1 µg/mL (≈ 13.9 µM); with Trichophyton benhamiae, 25 µg/mL (≈ 112 µM).
On to `CC1CCS/C(=C(/C#N)n2cnc3ccccc32)S1` (stereo not given), for which the MIC in the experiment on Candida albicans is greater than 100 µg/mL; against Sporothrix schenckii, greater than 100 µg/mL; in the experiment on Cryptococcus neoformans, greater than 100 µg/mL; in the experiment on Aspergillus fumigatus, 50 µg/mL (≈ 174 µM); with Trichophyton benhamiae, greater than 100 µg/mL.
`O=C(/C(=C1/SCCN1c1ccc(Cl)cc1)n1ccnc1)c1ccc(Cl)cc1`: the MIC against Candida albicans, in the experiment on Sporothrix schenckii, in the experiment on Cryptococcus neoformans, with Aspergillus fumigatus and in the experiment on Trichophyton benhamiae was greater than 100 µg/mL in each case.
